Laboratory results from patent US20110136141A1, “PEPTIDE REAGENTS AND METHOD FOR INHIBITING AUTOANTIBODY ANTIGEN BINDING” (Abbott Laboratories, priority 2009, published 2011).
The star is where a group is joined. Biotin = O=C1N[C@H]2[C@H](CS[C@H]2CCCCC(=O)*)N1

Tested on: endogenous antibodies to cardiac troponin-I (binding to recombinant human cardiac troponin-I)
Experiment: Inhibition of anti-cTnI autoantibody binding to cardiac troponin-I (microplate chemiluminescent immunoassay)
Experimental: Inhibitor working solutions: The peptides listed in Table 12 (obtained from Sigma-Genosys, PEPscreen custom library) were diluted in AxSYM® Troponin-I ADV Preincubation Diluent to give solutions ranging from 240 nmol/mL to 0 nmol/mL. An equimolar mixture of the peptides listed in Table 12 was prepared and diluted to give solutions ranging from 240 nmol/mL to 0 nmol/mL/.
Microplate preparation: Recombinant human cardiac troponin-I (cTnI, BiosPacific, Emeryville, Calif.) was coated on white high-binding flat-bottom 96-well polystyrene microplates (Costar) in phosphate buffer (100 μL, 0.2 M, pH 8, 4 μg/mL) at 38° C., for 1 h, then overcoated sequentially with bovine serum albumin and 2% wt/v sucrose in PBS.
Chemiluminescent detection conjugate: A murine anti-human IgG (subtype IgG2b, kappa;) was labeled with a chemiluminescent acridinium-9-carboxamide. This antibody recognized all human IgG subtypes while having no significant reactivity toward human IgM or IgA, or rabbit, sheep or goat IgG. […]
Chemiluminescent detection: The microplate was loaded into a Mithras microplate reader (Berthold Technologies Inc, Oak Ridge, Tenn.) equilibrated at 28° C. The chemiluminescence signal from each well was recorded for 2 s after the sequential addition of ARCHITECT® Pre-Trigger solution (100 μL) and ARCHITECT® Trigger solution (100 μL).

Substance: #5 (Biotin-ALSGMEGRKKKFES-NH2; SMILES CSCC[C@H](NC(=O)CNC(=O)[C@H](CO)NC(=O)[C@H](CC(C)C)NC(=O)[C@H](C)NC(=O)CCCC[C@@H]1SC[C@@H]2NC(=O)N[C@@H]21)C(=O)N[C@@H](CCC(=O)O)C(=O)NCC(=O)N[C@@H](CCCNC(=N)N)C(=O)N[C@@H](CCCCN)C(=O)N[C@@H](CCCCN)C(=O)N[C@@H](CCCCN)C(=O)N[C@@H](Cc1ccccc1)C(=O)N[C@@H](CCC(=O)O)C(=O)N[C@@H](CO)C(N)=O)
- ratio of signal to the low control (S/LC): inhibition of the binding of endogenous antibodies to the cTnI antigen on the microplate (Example 1, FIG. 11, peptides of Table 12 ([Btn] amino-terminus), 240 to 0 nmol/mL, human serum sample mixed 1:1, overnight): greatest inhibition
- ratio of signal to the low control (S/LC): inhibition of the binding of endogenous antibodies to the cTnI antigen on the microplate (Example 2, FIG. 12, peptides of Table 13 ([Ac] amino-terminus), procedure of Example 1): greatest inhibition
